In ChEMBL document CHEMBL5126609, “Design, Synthesis, and Pharmacological Evaluation of Benzimidazolo-thiazoles as Potent CXCR3 Antagonists with Therapeutic Potential in Autoimmune Diseases: Discovery of ACT-672125” (J Med Chem, 2022):
pIC50: −log10 of the molar value. In brackets after ≈: the same amount, converted by molar mass.

Key:
[1] = Solubility of the compound in FaSSIF; conditions: simulated gi fluid
[2] = Solubility of the compound in FeSSIF; conditions: simulated gi fluid
[3] = Lipophilicity, log D of the compound at pH 7.4; conditions: buffer
[4] = in vitro; conditions: human
[5] = Unbound fraction in human plasma by equilibrium based LC-MS/MS analysis
[6] = target: T1, C-X-C chemokine receptor type 3 (Homo sapiens, UniProt P49682); test: Antagonist activity at human recombinant CXCR3 in human venous blood assessed as receptor internalization measured for 30 mins in presence of CXCL10 by flow cytometric analysis
T1 sequence (P49682 whole entry): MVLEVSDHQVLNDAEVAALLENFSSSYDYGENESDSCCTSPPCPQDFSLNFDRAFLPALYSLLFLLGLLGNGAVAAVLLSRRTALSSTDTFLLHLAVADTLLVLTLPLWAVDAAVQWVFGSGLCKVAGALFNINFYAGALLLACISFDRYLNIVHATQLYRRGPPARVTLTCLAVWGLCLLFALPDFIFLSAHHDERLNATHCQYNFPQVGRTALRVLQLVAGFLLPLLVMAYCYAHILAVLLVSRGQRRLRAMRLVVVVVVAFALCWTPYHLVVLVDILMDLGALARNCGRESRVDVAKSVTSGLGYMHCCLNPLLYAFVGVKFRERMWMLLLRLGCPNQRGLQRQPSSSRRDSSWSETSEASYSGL

[7] = target: hERG (KCNH2) (Homo sapiens, UniProt Q12809); test: Inhibition of hERG expressed in CHO cells at 3 uM at -80 mV holding potential assessed as current block incubated for 3 mins by Qpatch clamp method relative to control
hERG (KCNH2), sequence (Q12809 whole entry): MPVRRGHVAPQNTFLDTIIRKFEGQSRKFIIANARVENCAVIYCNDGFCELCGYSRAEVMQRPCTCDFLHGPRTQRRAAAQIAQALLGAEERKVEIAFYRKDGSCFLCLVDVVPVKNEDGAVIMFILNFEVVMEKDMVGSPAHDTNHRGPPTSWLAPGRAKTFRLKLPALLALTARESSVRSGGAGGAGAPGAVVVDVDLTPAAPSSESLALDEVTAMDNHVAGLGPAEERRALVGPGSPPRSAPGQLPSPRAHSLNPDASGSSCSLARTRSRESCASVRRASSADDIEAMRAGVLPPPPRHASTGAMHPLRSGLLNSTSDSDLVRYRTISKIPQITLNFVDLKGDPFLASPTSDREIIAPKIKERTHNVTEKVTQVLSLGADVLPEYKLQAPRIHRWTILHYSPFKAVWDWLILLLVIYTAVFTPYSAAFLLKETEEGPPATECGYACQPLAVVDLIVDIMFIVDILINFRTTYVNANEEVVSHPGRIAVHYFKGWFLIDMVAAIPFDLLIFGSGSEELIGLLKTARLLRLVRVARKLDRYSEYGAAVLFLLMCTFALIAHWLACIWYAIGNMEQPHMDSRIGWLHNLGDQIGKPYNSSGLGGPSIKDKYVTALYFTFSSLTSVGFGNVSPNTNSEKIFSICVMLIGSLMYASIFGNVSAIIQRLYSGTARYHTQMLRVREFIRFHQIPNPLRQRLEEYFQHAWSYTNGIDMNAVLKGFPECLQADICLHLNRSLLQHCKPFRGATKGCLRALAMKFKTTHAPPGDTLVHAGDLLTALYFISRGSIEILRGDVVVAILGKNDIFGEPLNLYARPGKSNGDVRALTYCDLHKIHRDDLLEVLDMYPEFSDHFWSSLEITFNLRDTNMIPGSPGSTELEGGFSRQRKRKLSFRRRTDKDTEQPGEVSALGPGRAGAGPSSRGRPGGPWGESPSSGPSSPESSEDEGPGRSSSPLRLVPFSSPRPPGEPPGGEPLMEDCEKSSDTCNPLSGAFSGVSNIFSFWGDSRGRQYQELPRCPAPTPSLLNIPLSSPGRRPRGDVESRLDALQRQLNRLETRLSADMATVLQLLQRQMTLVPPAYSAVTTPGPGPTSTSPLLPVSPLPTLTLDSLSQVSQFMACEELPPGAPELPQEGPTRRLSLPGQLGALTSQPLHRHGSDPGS

[8] = target: T1, C-X-C chemokine receptor type 3; test: Antagonist activity at human recombinant CXCR3 expressed in CHO-K1 cells measured after 10 mins in presence of CXCL10 by FLIPR analysis
[9] = Cardiotoxicity in guinea pig assessed as QTc prolongation at 10 mg/kg, iv measured for 20 mins; type: toxicity, organism-based, Cavia porcellus; conditions: in vivo
[10] = Drug concentration in LPS-induced C57BL/6 mouse plasma at 100 mg/kg, po bid; type: ADME, organism-based; conditions: in vivo
[11] = Unbound fraction in mouse plasma by equilibrium based LC-MS/MS analysis
[12] = in vivo; conditions: Wistar, rat, po, 2 mg/kg
[13] = Clearance in dog relative to liver blood flow; type: ADME, Canis lupus familiaris; conditions: in vivo
[14] = in vivo; conditions: Wistar, rat, po, 2 mg/kg; remark: listed apart in the source
[15] = Toxicity in […] assessed as histopathological changes in liver at 300 mg/kg/day measured for 2 weeks; type: organism-based; conditions: in vivo, 336 h
[16] = target: cGMP-specific 3',5'-cyclic phosphodiesterase (Homo sapiens, UniProt O76074); test: Antagonist activity at PDE5 (unknown origin)
[17] = Volume of distribution in dog; type: ADME, Canis lupus familiaris; conditions: in vivo
[18] = Volume of distribution in rat; type: ADME; conditions: in vivo
[19] = Drug concentration in LPS-induced C57BL/6 mouse plasma at 30 mg/kg, po bid; type: ADME, organism-based; conditions: in vivo
[20] = tested on: Hepatocyte; test: Cytotoxicity in human hepatocyte measured up to 100 uM; type: toxicity, cell-based; conditions: hepatocytes
[21] = Unbound fraction in rat plasma by equilibrium based LC-MS/MS analysis
[22] = Toxicity in cynomolgus monkey assessed as increase in direct bilirubin level at 300 mg/kg/day measured for 7 days; type: organism-based, Macaca fascicularis; conditions: in vivo, time 7 day
[23] = in vivo; conditions: Balb/c, mouse, po, 10 mg/kg
[24] = Cmax in rat plasma at 300 mg/kg/day measured on day 14; type: ADME, organism-based; set-up: dose 300 mg/kg/day
[25] = Unbound fraction in rat liver; type: ADME, tissue-based
[26] = Free maximum concentration of drug in cynomolgus monkey at 300 mg/kg/day measured on day 7; type: ADME, organism-based, Macaca fascicularis; conditions: in vivo
[27] = in vivo; conditions: Balb/c, mouse, po, 10 mg/kg; remark: listed apart in the source
[28] = Oral bioavailability in dog; type: ADME, organism-based, Canis lupus familiaris; conditions: in vivo
[29] = Unbound fraction in dog liver; type: ADME, tissue-based, Canis lupus familiaris
[30] = Toxicity in cynomolgus monkey assessed as increase in total bilirubin level at 300 mg/kg/day measured for 7 days; type: organism-based, Macaca fascicularis; conditions: in vivo, time 7 day
[31] = Toxicity in rat plasma assessed as increase in total bilirubin level at 300 mg/kg/day measured for 2 weeks; type: organism-based; conditions: in vivo, 336 h
[32] = Clearance in Wistar rat at 2 mg/kg, po; conditions: in vivo
[33] = in vitro; conditions: rat, liver microsomes
[34] = in vitro; conditions: mouse
[35] = Unbound fraction in human liver; type: ADME, tissue-based
[36] = target: 5-hydroxytryptamine receptor 2A (Homo sapiens, UniProt P28223); test: Antagonist activity at 5-HT2A receptor (unknown origin)
5-hydroxytryptamine receptor 2A, sequence (P28223 whole entry): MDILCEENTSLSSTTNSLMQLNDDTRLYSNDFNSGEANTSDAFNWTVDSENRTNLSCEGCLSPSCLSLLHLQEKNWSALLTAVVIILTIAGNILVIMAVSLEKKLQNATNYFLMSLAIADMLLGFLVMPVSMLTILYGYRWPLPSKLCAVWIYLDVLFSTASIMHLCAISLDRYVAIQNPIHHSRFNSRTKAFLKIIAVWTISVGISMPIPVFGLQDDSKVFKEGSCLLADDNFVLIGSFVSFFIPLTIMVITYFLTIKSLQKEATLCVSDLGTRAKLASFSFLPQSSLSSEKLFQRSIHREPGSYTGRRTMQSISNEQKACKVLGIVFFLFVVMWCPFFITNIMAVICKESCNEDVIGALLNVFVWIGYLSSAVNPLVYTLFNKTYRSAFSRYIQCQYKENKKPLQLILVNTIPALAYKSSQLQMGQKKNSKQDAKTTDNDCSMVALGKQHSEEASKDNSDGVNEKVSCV

[37] = in vivo; conditions: Wistar, rat, po, 2 mg/kg; remark: listed apart in the source
[38] = Mutagenicity in Salmonella typhimurium by Ames test; type: toxicity; conditions: salmonella enterica subsp. enterica serovar typhimurium
[39] = Toxicity in cynomolgus monkey assessed as increase in indirect bilirubin level at 300 mg/kg/day measured for 7 days; type: organism-based, Macaca fascicularis; conditions: in vivo, time 7 day
[40] = Drug concentration in LPS-induced C57BL/6 mouse plasma at 200 mg/kg, po bid; type: ADME, organism-based; conditions: in vivo
[41] = Toxicity in rat plasma assessed as increase in indirect bilirubin level at 300 mg/kg/day measured for 2 weeks; type: organism-based; conditions: in vivo, 336 h
[42] = Clearance in rat relative to liver blood flow; type: ADME; conditions: in vivo
[43] = Half life in Wistar rat at 0.5 mg/kg, iv; conditions: in vivo
[44] = Volume of distribution at steady state in Wistar rat at 2 mg/kg, po; conditions: in vivo
[45] = Toxicity in rat plasma assessed as increase in direct bilirubin level at 300 mg/kg/day measured for 2 weeks; type: organism-based; conditions: in vivo, 336 h
[46] = Oral bioavailability in rat; type: ADME, organism-based; conditions: in vivo
[47] = in vivo; conditions: Balb/c, mouse, po, 10 mg/kg; remark: listed apart in the source
[48] = Apparent permeability across apical to basolateral side in MDCK1 cells by LC-MS/MS analysis; conditions: dog, MDCK

C[C@@H]1CN(c2sc(C(F)(F)F)nc2-c2nc3ccccc3[nH]2)CCN1C(=O)Cn1cnc2c1CCN(C)C2
solubility [1]: > 920 µg/mL | solubility [2]: > 920 µg/mL | logD [3]: 3 | microsomal CLint at 0.25 h, 1 µM ([4]; microsomes): 21 µL/min/mg | fraction unbound [5]: 0.15 | pIC50 [6]: 6.87 | inhibition at 0.05 h, 3 µM [7]: 33% | pIC50 [8]: 8.44

Cc1nc(C)n(CC(=O)N2CCN(c3sc(C(F)(F)F)nc3-c3nc4ccc(-c5noc(C)n5)cc4[nH]3)C[C@H]2C)n1
Activity [9]: Non-Toxic | Cp [10]: 250 ng/mL | fraction unbound [11]: 0.024 | AUC [12]: 1160 ng·h/mL | CLH [13]: 11% | bioavailability [14]: 0.5% | Activity [15]: Non-Toxic | pIC50 [16]: 5.06 | Vd [17]: 2.2 L/kg | Vd [18]: 1.1 L/kg | Cp [19]: 30 ng/mL | Activity [20]: Non-Toxic | fraction unbound [21]: 0.029 | Activity [22]: Toxic | AUC [23]: 6600 ng·h/mL | Cmax [24]: 3.5 µM | fraction unbound [25]: 0.029 | fCmax [26]: 1.4 µM | Tmax [27]: 15 min | bioavailability [28]: 57% | fraction unbound [29]: 0.106 | Activity [30]: Toxic | microsomal CLint at 0.25 h, 1 µM ([4]; liver microsomes): < 10 µL/min/mg | Activity [31]: Toxic | CL/F [32]: 14 mL/min/kg | microsomal CLint at 0.25 h, 1 µM [33]: 47 µL/min/mg | microsomal CLint at 0.25 h, 1 µM ([34]; liver microsomes): 21 µL/min/mg | fraction unbound [35]: 0.038 | pIC50 [36]: 4.80 | pIC50 [6]: 6.62 | Tmax [37]: 15 min | Activity [38]: Non-Toxic | Activity [39]: Toxic | Cp [40]: 14630 ng/mL | Activity [41]: Toxic | CLH [42]: 10% | half-life [43]: 72 min | Vdss [44]: 1 L/kg | pIC50 [8]: 8.60 | Activity [45]: Toxic | bioavailability [46]: 48% | Cmax [47]: 3140 ng/mL

C[C@@H]1CN(c2sc(C(F)(F)F)nc2-c2nc3ccccc3[nH]2)CCN1C(=O)Cn1cccn1
fraction unbound [11]: 0.026 | solubility [1]: 352 µg/mL (≈ 740 µM) | solubility [2]: 734 µg/mL (≈ 1540 µM) | AUC [23]: 720 ng·h/mL | logD [3]: 3.4 | Tmax [27]: 15 min | microsomal CLint at 0.25 h, 1 µM ([4]; microsomes): 44 µL/min/mg | microsomal CLint at 0.25 h, 1 µM ([34]; microsomes): 218 µL/min/mg | fraction unbound [5]: 0.052 | pIC50 [6]: 6.72 | inhibition at 0.05 h, 3 µM [7]: 54% | pIC50 [8]: 7.89 | Cmax [47]: 670 ng/mL

Cc1nc(C)n(CC(=O)N2CCN(c3sc(C(F)(F)F)nc3-c3nc4c(F)cccc4[nH]3)C[C@H]2C)n1
fraction unbound [11]: 0.014 | Papp A→B [48]: 8.5 ×10⁻⁶ cm/s | solubility [2]: 750 µg/mL (≈ 1440 µM) | AUC [23]: 41500 ng·h/mL | logD [3]: 3.6 | Tmax [27]: 15 min | microsomal CLint at 0.25 h, 1 µM ([4]; microsomes): 24 µL/min/mg | microsomal CLint at 0.25 h, 1 µM ([34]; microsomes): 25 µL/min/mg | pIC50 [6]: 6.49 | inhibition at 0.05 h, 3 µM [7]: 45% | pIC50 [8]: 8.51 | Cmax [47]: 7010 ng/mL
